Data: the NIST ThermoML archive (doi:10.1016/j.jct.2007.04.004)

Experiments:
[1] = Liquid; for mass density: 101.33 kPa, Pycnometric method; for Normal boiling temperature: Ebulliometric method (Recirculating still)
[2] = excess molar enthalpy (molar enthalpy of mixing); xn = mol fraction of the nth substance listed; conditions: 298.15 K, 101 kPa, Liquid

CC(=O)CC(C)C [4-methylpentan-2-one]
[1]
Conditions	mass density [kg/m3]	vapor or sublimation pressure [kPa]
298.15 K	796.33	–
386.7 K	–	95.3

Conditions	Normal boiling temperature [°C]
[1]	117.39

CC(=O)CC(C)C [4-methylpentan-2-one] + C[S+](C)[O-]
[2]
Conditions	excess molar enthalpy [kcal/mol]
x1 = 0.0387	0.0314
x1 = 0.0839	0.0636
x1 = 0.1332	0.0937
x1 = 0.1874	0.113
x1 = 0.2391	0.131
x1 = 0.2901	0.143
x1 = 0.3377	0.158
x1 = 0.3804	0.167
x1 = 0.4029	0.172
x1 = 0.4617	0.17
x1 = 0.5304	0.164
x1 = 0.6116	0.144
x1 = 0.6917	0.114
x1 = 0.7918	0.0687
x1 = 0.837	0.0539
x1 = 0.9237	0.0255

CCC(C)=O [butanone]
[1]
Conditions	mass density [kg/m3]	vapor or sublimation pressure [kPa]
298.15 K	799.71	–
350.9 K	–	95.3

Conditions	Normal boiling temperature [°C]
[1]	79.54

CCC(C)=O [butanone] + C[S+](C)[O-]
[2]
Conditions	excess molar enthalpy [kcal/mol]
x1 = 0.054	0.0179
x1 = 0.1094	0.0357
x1 = 0.1725	0.0509
x1 = 0.2385	0.0621
x1 = 0.2956	0.0729
x1 = 0.3507	0.0832
x1 = 0.4007	0.0891
x1 = 0.4448	0.0936
x1 = 0.4881	0.0944
x1 = 0.5787	0.0966
x1 = 0.6433	0.0864
x1 = 0.7077	0.0737
x1 = 0.7797	0.0581
x1 = 0.856	0.0356
x1 = 0.9297	0.0135

O=C1CCCCC1 [cyclohexanone]
[1]
Conditions	mass density [kg/m3]	vapor or sublimation pressure [kPa]
303.15 K	937.58	–
426.3 K	–	95.3

Conditions	Normal boiling temperature [°C]
[1]	155.69

O=C1CCCCC1 [cyclohexanone] + C[S+](C)[O-]
[2]
Conditions	excess molar enthalpy [kcal/mol]
x1 = 0.0386	0.0249
x1 = 0.0873	0.0566
x1 = 0.1405	0.0601
x1 = 0.1917	0.105
x1 = 0.2431	0.121
x1 = 0.3037	0.135
x1 = 0.3596	0.152
x1 = 0.4115	0.161
x1 = 0.5044	0.165
x1 = 0.5686	0.158
x1 = 0.6399	0.147
x1 = 0.7238	0.126
x1 = 0.8119	0.0913
x1 = 0.9101	0.048

C[S+](C)[O-] [dimethyl sulfoxide]
[1]
Conditions	mass density [kg/m3]	vapor or sublimation pressure [kPa]
298.15 K	1095.37	–
461 K	–	95.3

Conditions	Normal boiling temperature [°C]
[1]	189.04
